Test results as given in US20230091848A1, “DISEASE DETECTION AND TREATMENT BASED ON PHENYLACETYL GLUTAMINE LEVELS” (The Cleveland Clinic Foundation, priority 2020, published 2023).

Key:
[1] = tested on: human platelet rich plasma (PRP); experiment: Platelet aggregometry in platelet rich plasma; type: cell-based; settings: submaximal ADP
Description: ADP (up to 4 μM), TRAP6 (up to 10 μM) and collagen (up to 1.0 μg/mL) were used as indicated to initiate aggregation with constant stirring (600 rpm).

[2] = tested on: washed human platelets; experiment: Intracellular Ca2+ in Fura 2 loaded washed platelets; type: cell-based; settings: sub-maximal (0.02 U) thrombin
Description: To prepare washed platelets for intracellular Ca^2+ measurements, 100 nM prostaglandin E1 (PGE-1) was added to PRP and the PRP was then centrifuged at 500×g for 20 min at 22° C. […] For ratiometric fluorescence measurements, washed platelets were incubated with Fura 2-AM (1 μM) at 22° C. for 30 min. Excess Fura 2-AM was removed by centrifugation at 500×g for 30 min.

[3] = tested on: FeCl3-induced carotid artery injury model; experiment: Carotid artery FeCl3 injury thrombosis assay; type: in vivo, mice; settings: i.p. injection 50 mg/kg; vs phenylalanine or saline
Description: Briefly, rhodamine 6G (100 μL; 0.5 mg/mL) was injected directly into the right jugular vein to label platelets. The left carotid artery was exposed and injured by placing a FeCl3-soaked filter paper for 1 minute. […] Time to cessation of blood flow through clot formation for all studies was determined by visual inspection by two different investigators. End points were set as cessation of blood flow for 30 seconds to 30 minutes.

SMILES: O=C(O)CNC(=O)Cc1ccccc1 [PAGly, phenylacetylglycine]
- ADP-stimulated platelet aggregation response [1]: augmented stimulus (ADP) dependent platelet aggregation response
- thrombin-evoked augmentation of [Ca2+]i [2]: provoked further rise in [Ca^2+]i in response to sub-maximal thrombin exposure
- platelet thrombus formation within the injured carotid artery [3]: induced heightened platelet thrombus formation within the injured carotid artery
- time to cessation of flow (occlusion time) [3]: reduced the time to cessation of flow following injury
